PMC12587545, “Noncytotoxic polymyxin derivatives enhance antibiotic action against multidrug-resistant Gram-negative bacteria” (Antimicrobial Agents and Chemotherapy, 2025)
Positions of bridges follow the written chain, without caps; N, C: chain ends. Non-standard residues stand in square brackets, D forms with d. Residues, ends and D or L forms follow the SMILES beside them. *: point of attachment. Octanoyl = CCCCCCCC(=O)*; Dab = NCC[C@H](N)C(=O)O; Dap = NC[C@H](N)C(=O)O

Columns and labels:
HK-2 = assay type: cell-based, human; conditions: 48 h
Description: (§1) Kidney cell lines, HK-2 (CRL-2190) and RPTEC/TERT1 (CRL-4031), and neural cell lines, U-87 MG (HTB-14) and SK-N-SH (HTB-11), were obtained from American Type Culture Collection (ATCC). HK-2 cells were cultured in T75 flasks with keratinocyte serum-free medium supplemented with bovine pituitary extract, human epidermal growth factor, and 2.5% FBS. RPTEC/TERT1 cells were cultured in T75 flasks with Dulbecco’s modified Eagle’s medium:F12 supplemented with the ATCC (United States) human telomerase reverse transcriptase immortalized RPTEC growth kit, G418 (0.1 mg/mL final concentration), and 2% FBS. Both U-87 MG and SK-N-SH cells were cultured in minimal essential media supplemented with 10% FBS. The cells were incubated in a humidified atmosphere at 5% CO2 and at 37°C.
(§2) The cytotoxicity of the compounds toward the mammalian cell lines was assessed using the cell viability assay protocols as previously described ([29]). Designated wells in 96-well plates were seeded with HK-2 (5,000 cells), RPTEC/TERT1 (8,000 cells), U-87 MG (7,000 cells), or SK-N-SH (8,000 cells) in 50 µL. Blank wells received an identical volume of only media. After incubating the cells for 24 h, all wells were treated with varying concentrations of the compound and incubated for 48 h. Subsequently, PrestoBlue reagent (Invitrogen, United States) was added to the wells to a final concentration of 10% (vol/vol), and the plate was incubated for an additional 1 h. Fluorescence was measured with a SpectraMax M2 plate reader (Molecular Devices, United States), at excitation and emission wavelengths of 560 and 590 nm, respectively. Values from the blank wells were subtracted from the corresponding wells containing cells. The cell viability relative to the controls with vehicle was calculated and presented as mean ± standard deviation of at least two experiments with five replicates each. CC50 values were obtained using GraphPad Prism (version 10.4.1) by non-linear regression (four-parameter logistic fit).

P. aeruginosa = test system: P. aeruginosa
Description: (§3) The bacterial isolates were acquired from ATCC or the Canadian Ward Surveillance (CANWARD) study ([56]). CANWARD isolates were collected from infected patients admitted to participating medical centers across Canada.
(§4) The antibiotic or compound was serially diluted 2-fold in CAMHB on a 96-well plate and was incubated with equal volumes of bacterial inoculum overnight at 37°C. Wells containing only media were used as negative controls, and wells containing only bacteria were used as positive controls. Antibacterial activity was measured by the MIC, or the lowest concentration of agent required to inhibit visible bacterial growth. Turbidity was confirmed with a Molecular Devices (United States) EMax Plus microplate reader at a wavelength of 590 nm.

K. pneumoniae = test system: K. pneumoniae
Description: as §3, §4

U-87 MG = experiment: Cell viability assay (PrestoBlue); assay type: cell-based; conditions: 24 h
Description: as §1
as §2, with “After incubating the cells for 24 h, all wells were treated with varying concentrations of the compound and incubated for 48 h.” left out

SK-N-SH = experiment: Cell viability assay (PrestoBlue); assay type: cell-based; conditions: 24 h
Description: as §1
as §2, with “After incubating the cells for 24 h, all wells were treated with varying concentrations of the compound and incubated for 48 h.” left out

MIC (P. aeruginosa): >128 mg/L
MIC (K. pneumoniae): >128 mg/L
SMILES: CCCCCCCC(=O)N[C@@H](CN)C(=O)N[C@H](C(=O)N[C@@H](CN)C(=O)N[C@H]1CCNC(=O)[C@H]([C@@H](C)O)NC(=O)[C@H](CN)NC(=O)[C@H](CN)NC(=O)[C@H](CC(C)C)NC(=O)[C@@H](Cc2ccccc2)NC(=O)[C@H](CN)NC1=O)[C@@H](C)O [Compound 1] (Octanoyl-[Dap]T[Dap][Dab][Dap][dF]L[Dap][Dap]T; lactam 4-C)
CC50 in HK-2 (HK-2): 238.7 µM
cell viability (U-87 MG): exceeding 100%
cell viability (SK-N-SH): exceeding 100%
